Test results: article PMC4802308, “Integrating computational and chemical biology tools in the discovery of antiangiogenic small molecule ligands of FGF2 derived from endogenous inhibitors” (Scientific Reports, 2016)

Key:
FGF2 mitogenic activity = system: FGF2 mitogenic activity; parameters: method as in PMID 12676958; conditions: read-out: IC50, inhibition of FGF2 mitogenic activity; cited from earlier work
FGF2 [1] = target: T1, FGF2 (Homo sapiens, UniProt P09038, A3E/C211S/C229S/S5E); experiment: NMR titration (1H-15N HSQC) of 15N-labeled FGF2; assay type: binding; conditions: pH 5.5, 25 °C
T1 construct: purchased ASLA (Riga, Latvia)
Experimental: In order to investigate whether the functionalized phenylamino-substituted naphthalenes maintained the ability of TSP-1 and SM27 to target the heparin interaction site of FGF2[16][21], interaction studies between SM.1–31 or SM.1–34 (showing the highest activity) and FGF2 were performed by NMR. Each SM was titrated into a solution of ^15N-enriched FGF2 protein and a series of 2D ^1H^15N-HSQC experiments were recorded to follow the protein changes induced by the ligand. […] Residues showing the highest perturbations are Arg129 and Lys144, as previously observed for SM27, pointing to similar interactions that likely involve inhibitors SO3 groups.
NMR samples contained 0.57 mM ^15N-labeled FGF2, dissolved in a buffer containing 50 mM potassium phosphate, 2 mM NaN3, and 10 mM deuterated DTT in 90% H2O/10% D2O, pH 5.5. For the identification of the binding region, SM.1–34 and SM.1–31 were incrementally added to protein solutions up to SM:FGF2 stoichiometric ratio of 3. NMR data were collected on a Bruker DMX 500 MHz spectrometer at 25 °C. 2D ^1H-^15N HSQC spectra were recorded with a sweep width of 13 ppm (^1H) and 40 ppm (^15N). 1k × 128 data points were used in proton and nitrogen dimensions, respectively. Data, acquired and processed using Topspin (Bruker Biospin), were apodized with a squared sinebell shifted by 90° and polynomial baseline correction. […]

FGF2 [2] = target: T2, FGF2 (Homo sapiens, UniProt P09038); experiment: Competition with biotinylated recombinant TSP-1 domain (E123CaG1) for binding to FGF2 (DELFIA); conditions: Fig. 6B
T2 construct: purchased R&D Systems, obtained through the NCI-Biological Resources Branch
Text: Of the identified hits, 23 (Fig. 1 and Suppl. Table S1), made available from the NCI (NIH), were subjected to experimental analysis of FGF2 binding. We used an indirect assay, based on the competition of the tested molecules with the recombinant TSP-1 type III domain for binding to FGF2, an approach previously employed to analyze the FGF2/SM27 binding.
Figure 2 FGF2-binding property of the selected hits, analyzed with an indirect assay, as ability to compete with the TSP-1 fragment E123CaG1 (comprising the type III repeats domain) for FGF2 binding, as described in Methods. Binding of the biotinylated recombinant domain to FGF2 in the presence or absence of each molecule (5 μM). Data are the percentage of control binding, mean and SE of 3 experiments performed in triplicate. *p < 0.05 compared to control (ANOVA followed by Bonferroni test).
DELFIA® Microtitration plates and reagents were from PerkinElmer. Plates were coated overnight at 4 °C with FGF2 (0.1 μg in 40 μl /well PBS). After washing, non-specific binding sites were saturated by a 30 minute incubation with PBS 1% BSA. The biotin-labeled recombinant TSP-1 fragment (10 nM) was added in 40 μl PBS 1% BSA with or without the indicated concentration of small molecules, and incubated for 3 h at room temperature. The plates were washed with PBS 0.1% BSA and incubated for 1 h with 100 μl/well Eu-Labeled Streptavidin 1:1000 at room temperature. After washing, plates were incubated with DELFIA® Enhancement Solution. Time resolved fluorescence was measured using a Victor[3] multilabel plate reader (PerkinElmer).

BAEC = experiment: FGF2-induced endothelial cell proliferation assay; assay type: cell-based, Bovine; conditions: FGF2 5 ng/ml, 72 h
Experimental: (§1) Figure 4 Biological activity of the selected hits. (A) Endothelial cell proliferation. BAEC were exposed to FGF2 (5 ng/ml) with increasing concentrations of molecules (3–80 μM). After 72 h, cells were stained and proliferation measured as absorbance. Data are the percentage of control proliferation (in absence of molecules), mean of value from 2 experiments performed in triplicate. (B–D) Aortic ring assay. Sections of murine aortas were embedded in Matrigel, in the presence of FGF2 (30 ng/ml) and the indicated small molecule. The formation of capillary structures sprouting from the rings was analyzed after 7 and 11 days as described in Methods, and the angiogenic response expressed as area covered by the sprouting structures (arbitrary units, mean and SE, n ≥ 6). (B) Antiangiogenic activity of the small molecules (100 μM). (C) Examples of time-dependent and dose-dependent effect of two compounds (SM.2–20 and SM.2–23), tested at 100 (diamond), 50 (circle) and 25 μM (triangle) compared to control (black squares). (D) Representative pictures of sprouting from control and SM.2–23 treated aortic sections. […] (E) Angiogenic response is evaluated 4 days later, and expressed as number of vessels entering the sponge (mean and SD). […]
BAEC (2500 cells/well) were plated in 96-well plates in DMEM 1.5% FCS. […] Plates were then stained with crystal violet or MTS and analyzed as described.

[3] = system: FGF2-induced angiogenesis; experiment: Chorioallantoic membrane (CAM) assay; assay type: in vivo, White Leghorn chicken; conditions: FGF2 200 ng, compound 0.5 μg
Experimental: as §1, with “μM).” for “μM). (C) Examples of time-dependent and dose-dependent effect of two compounds (SM.2–20 and SM.2–23), tested at 100 (diamond), 50 (circle) and 25 μM (triangle) compared to control (black squares). (D) Representative pictures of sprouting from control and SM.2–23 treated aortic sections.”
Fertilized White Leghorn chicken eggs were incubated at 37 °C at constant humidity. […] At day 12, CAMs were photographed in ovo under a stereomicroscope (Olympus), and blood vessels entering the sponge within the focal plane of the CAM were counted by two observers in double blind.

FGF2 [4] = target: T2, FGF2; experiment: Competition with biotinylated recombinant TSP-1 domain (E123CaG1) for binding to FGF2 (DELFIA); conditions: for IC50: mean ± SE of 3 experiments; for fold more active than the initial query SM27 (competition IC50): vs SM27
FGF2 [5] = target: T2, FGF2; experiment: SPR direct binding to sensorchip-immobilized FGF2; conditions: single site model, one experiment representative of two, read-out: Kd (dissociation constant) of FGF2/compound interaction
Experimental: SPR measurements were performed on a BIAcore X100 instrument (GE-Healthcare, WI). FGF2 was immobilized on a CM5 sensorchip (GE-Healthcare) as described, allowing the immobilization of 7,365 resonance units (RU) (410 fmol/mm^2 of FGF-2).
Suppl. Table S2. Determination of the affinity (Kd) of the FGF2/compound interactions by
Binding parameters were calculated by the non-linear curve fitting software package BIAevaluation
3.2 using a single site model with correction for mass transfer. Dissociation constant (Kd) values
were derived from the dissociation rate/association ratio. Only sensorgrams whose fitting gave
values of X2 lower than 10 were used {Khalifa, 2001 #213}.

[6] = system: FGF2-induced vessels sprouting, murine aortic rings; experiment: Aortic rings assay (FGF2-induced vessels sprouting, 3D Matrigel); parameters: species or system C57BL/6 mice; conditions: FGF2 30 ng/ml, small molecules 100 μM
Experimental: Figure 4 Biological activity of the selected hits. (A) Endothelial cell proliferation. BAEC were exposed to FGF2 (5 ng/ml) with increasing concentrations of molecules (3–80 μM). After 72 h, cells were stained and proliferation measured as absorbance. Data are the percentage of control proliferation (in absence of molecules), mean of value from 2 experiments performed in triplicate. (B–D) Aortic ring assay. Sections of murine aortas were embedded in Matrigel, in the presence of FGF2 (30 ng/ml) and the indicated small molecule. The formation of capillary structures sprouting from the rings was analyzed after 7 and 11 days as described in Methods, and the angiogenic response expressed as area covered by the sprouting structures (arbitrary units, mean and SE, n ≥ 6). (B) Antiangiogenic activity of the small molecules (100 μM). (C) Examples of time-dependent and dose-dependent effect of two compounds (SM.2–20 and SM.2–23), tested at 100 (diamond), 50 (circle) and 25 μM (triangle) compared to control (black squares). (D) Representative pictures of sprouting from control and SM.2–23 treated aortic sections. Original magnification, 20x. (E,F) Chorioallantoic membrane assay. FGF2 (200 ng) was administered in the absence or presence of the indicated compound (0.5 μg) on day 8 (n = 10). (E) Angiogenic response is evaluated 4 days later, and expressed as number of vessels entering the sponge (mean and SD). (F) Representative pictures are shown. Original magnification, 50x.
Thoracic aortas were removed from mice, cleaned of perivascular adipose tissue and cut into 1 mm segments. Matrigel (75 μl, BD Biosciences) was added to 96 well plates, and allowed to gellify at 37 °C for 30 min. Aortic sections were added to the wells, and covered with a second layer of Matrigel and DMEM 5% FCS containing FGF2 (30 ng/ml) and the indicated concentration of the compounds. The formation of capillary structures sprouting from the rings was analyzed after 4, 7 and 11 days with an inverted-phase contrast microscope (IX70; Olympus). Images were analyzed with ImageJ 1.48, and the angiogenic response expressed as area covered by the sprouting structures (arbitrary units), substracted the area of the aortic section.

T2 sequence (P09038 134-288 limits assumed): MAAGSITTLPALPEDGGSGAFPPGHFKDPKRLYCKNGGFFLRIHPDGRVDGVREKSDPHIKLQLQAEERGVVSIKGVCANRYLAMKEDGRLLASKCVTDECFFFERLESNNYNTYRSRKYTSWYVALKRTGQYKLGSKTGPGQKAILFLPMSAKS
T1 sequence (P09038 with tags, fused parts or gaps isoform P09038-2 C78S/C96S limits assumed): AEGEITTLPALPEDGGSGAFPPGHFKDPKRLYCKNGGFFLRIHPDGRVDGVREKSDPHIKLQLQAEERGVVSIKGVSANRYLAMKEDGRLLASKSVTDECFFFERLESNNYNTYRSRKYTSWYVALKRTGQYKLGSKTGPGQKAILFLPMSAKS

SMILES	affinity for FGF2 indicated by NMR titration (FGF2 [1])	ability to bind FGF2 in the competition assay (phenylamino-substituted naphthalenes) (FGF2 [2])	IC50 (FGF2 [4]) [nM]	fold more active than the initial query SM27 (competition IC50) (FGF2 [4])	inhibition of FGF2-induced endothelial cell proliferation (antiproliferative activity) (BAEC)	inhibition of FGF2-induced angiogenesis in the CAM assay [3]	other results
Nc1cccc2cc(S(=O)(=O)O)ccc12 [5-amino-2-naphthalenesulfonate]							IC50 (FGF2 mitogenic activity): 265000 nM
O=S(=O)([O-])c1cccc2cc(Nc3ccccc3)ccc12.[Na+] [SM.1–31, sodium 6-(phenylamino)naphthalene-1-sulfonate]	high micromolar range	most active			increased activity		
Oc1cccc2ccc(Nc3ccccc3)cc12 [SM.1–33, 8-hydroxy-N-phenylanaphthalen-2-aminium chloride]		inactive			significant loss of activity		

The next lines start with results.

affinity for FGF2 indicated by NMR titration (FGF2 [1])	ability to bind FGF2 in the competition assay (phenylamino-substituted naphthalenes) (FGF2 [2])	IC50 (FGF2 [4]) [nM]	fold more active than the initial query SM27 (competition IC50) (FGF2 [4])	SMILES	inhibition of FGF2-induced endothelial cell proliferation (antiproliferative activity) (BAEC)	inhibition of FGF2-induced angiogenesis in the CAM assay [3]	other results
high micromolar range	most active			O=S(=O)([O-])c1cc(S(=O)(=O)[O-])c2ccc(Nc3ccccc3)cc2c1O.[Na+].[Na+] [SM.1–34, sodium 4-hydroxy-6-(phenylamino)naphthalene-1,3-disulfonate]			
		610 ± 60	6–11 fold	Nc1cccc(/N=N/c2c(S(=O)(=O)O)cc3cc(NC(=O)Nc4ccc5c(O)c(/N=N/c6cccc(N)c6)c(S(=O)(=O)O)cc5c4)ccc3c2O)c1 [SM.2–18, 3-((E)-(3-aminophenyl)diazenyl)-7-(3-(6-((E)-(3-aminophenyl)diazenyl)-5-hydroxy-7-sulfonaphthalen-2-yl)ureido)-4-hydroxynaphthalene-2-sulfonic acid]		active	
		460 ± 100	6–11 fold	Cc1ccc(C)c(/N=N/c2c(S(=O)(=O)O)cc3cc(NC(=O)Nc4ccc5c(O)c(/N=N/c6ccc7cc(S(=O)(=O)O)ccc7c6)c(S(=O)(=O)O)cc5c4)ccc3c2O)c1 [SM.2–24, 3-((E)-(2,5-dimethylphenyl)diazenyl)-4-hydroxy-7-(3-(5-hydroxy-7-sulfo-6-((E)-(6-sulfonaphthalen-2-yl)diazenyl)naphthalen-2-yl)ureido)naphthalene-2-sulfonic acid]		active	Kd (FGF2 [5]): 111 nM; inhibition of FGF2-induced vessels sprouting [6]: significantly inhibited
